Assay results taken from patent publication US9340537B2, “Benzamide derivatives for inhibiting the activity of ABL1, ABL2 and BCR-ABL1” (NOVATIS AG, priority 2012, dated 2016).

What was measured:
ABL1 (64-515) [1] = target: T1, ABL1 (64-515) (Homo sapiens (Human), UniProt P00519); assay: Caliper ABL1 (64-515) microfluidic mobility shift kinase assay; conditions: read-out: Caliper ABL1 (64-515) IC50
ABL1 (64-515) [2] = target: T1, ABL1 (64-515); assay: Radio ABL1 (64-515) radiometric filter-binding kinase assay; assay type: biochemical; conditions: 20 μM ATP

T1 sequence (P00519 64-515): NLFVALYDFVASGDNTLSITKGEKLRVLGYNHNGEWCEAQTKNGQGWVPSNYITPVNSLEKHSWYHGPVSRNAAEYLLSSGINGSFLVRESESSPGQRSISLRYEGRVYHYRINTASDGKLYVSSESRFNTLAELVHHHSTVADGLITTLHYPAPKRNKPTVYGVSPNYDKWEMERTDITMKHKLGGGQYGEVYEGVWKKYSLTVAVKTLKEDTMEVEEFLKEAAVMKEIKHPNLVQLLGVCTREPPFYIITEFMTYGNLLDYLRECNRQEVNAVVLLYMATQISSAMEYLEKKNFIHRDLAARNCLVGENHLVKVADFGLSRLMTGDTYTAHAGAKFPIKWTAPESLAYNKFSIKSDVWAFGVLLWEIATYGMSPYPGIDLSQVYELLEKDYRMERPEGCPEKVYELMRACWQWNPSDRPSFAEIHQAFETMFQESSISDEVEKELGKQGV

IC50 (ABL1 (64-515) [1]) [nM]	IC50 (ABL1 (64-515) [2]) [nM]	SMILES
0.2	1	N[C@@H]1[C@H]2CN(c3ncc(C(=O)Nc4ccc(OC(F)(F)Cl)cc4)cc3-c3ccn[nH]3)C[C@@H]12 [Example 55, 6-((1R,5S,6s)-6-Amino-3-azabicyclo[3.1.0]hexan-3-yl)-N-(4-(chlorodifluoromethoxy)phenyl)-5-(1H-pyrazol-5-yl)nicotinamide]
3.4	5.8	O=C(Nc1ccc(OC(F)(F)Cl)cc1)c1cnc(N2CCN(C3CC3)CC2)c(-c2ccn[nH]2)c1 [Example 57, N-(4-(Chlorodifluoromethoxy)phenyl)-6-(4-cyclopropylpiperazin-1-yl)-5-(1H-pyrazol-5-yl)nicotinamide]
0.7	2	O=C(Nc1ccc(OC(F)(F)Cl)cc1)c1cnc(N2CCC(O)CC2)c(-c2ccn[nH]2)c1 [Example 85, N-(4-(Chlorodifluoromethoxy)phenyl)-6-(4-hydroxypiperidin-1-yl)-5-(1H-pyrazol-5-yl)nicotinamide]
0.8	1.5	CC1(O)CN(c2ncc(C(=O)Nc3ccc(OC(F)(F)Cl)cc3)cc2-c2ccn[nH]2)C1 [Example 66, N-(4-(Chlorodifluoromethoxy)phenyl)-6-(3-hydroxy-3-methylazetidin-1-yl)-5-(1H-pyrazol-5-yl)nicotinamide]
	1.3	O=C(Nc1ccc(OC(F)(F)Cl)cc1)c1cnc(N2CCC3(CNC3)C2)c(-c2ccn[nH]2)c1 [Example 50, N-(4-(Chlorodifluoromethoxy)phenyl)-5-(1H-pyrazol-5-yl)-6-(2,6-diazaspiro[3.4]octan-6-yl)nicotinamide]
	5.5	O=C(Nc1ccc(OC(F)(F)Cl)cc1)c1cnc(N2CCC(F)(F)C2)c(-c2ccn[nH]2)c1 [Example 48, N-(4-(Chlorodifluoromethoxy)phenyl)-6-(3,3-difluoropyrrolidin-1-yl)-5-(1H-pyrazol-5-yl)nicotinamide]

Second part, the compound before the results:

SMILES	IC50 (ABL1 (64-515) [1]) [nM]	IC50 (ABL1 (64-515) [2]) [nM]
Cc1cc(-c2cc(C(=O)Nc3ccc(OC(F)(F)F)cc3)cnc2N2CC(CO)C2)[nH]n1 [Example 42, 6-(3-(Hydroxymethyl)azetidin-1-yl)-5-(3-methyl-1H-pyrazol-5-yl)-N-(4-(trifluoromethoxy)phenyl)nicotinamide]	18	2
Cc1ncc(-c2cc(C(=O)Nc3ccc(OC(F)(F)F)cc3)cnc2N2CC[C@H](CO)C2)s1 [Example 16, (S)-6-(3-(Hydroxymethyl)pyrrolidin-1-yl)-5-(2-methylthiazol-5-yl)-N-(4-(trifluoromethoxy)phenyl)nicotinamide]	1.1	< 3
O=C(Nc1ccc(OC(F)(F)F)cc1)c1cnc(N2CCOCC2)c(-c2ccn[nH]2)c1 [Example 18, 6-Morpholino-5-(1H-pyrazol-5-yl)-N-(4-(trifluoromethoxy)phenyl)nicotinamide]	6.5	5
CO[C@H]1CN(c2ccc(C(=O)Nc3ccc(OC(F)(F)F)cc3)cc2-c2cncs2)C[C@@H]1O (relative stereo) [Example 4, 4-(trans-3-Hydroxy-4-methoxypyrrolidin-1-yl)-3-(thiazol-5-yl)-N-(4-(trifluoromethoxy)phenyl)benzamide]	4.2	4
O=C(Nc1ccc(OC(F)(F)F)cc1)c1cnc(N2C[C@H](CO)[C@@H](O)C2)c(-c2cncs2)c1 (relative stereo) [Example 17, 6-(trans-3-Hydroxy-4-(hydroxymethyl)pyrrolidin-1-yl)-5-(thiazol-5-yl)-N-(4-(trifluoromethoxy)phenyl)nicotinamide]	1.4	10
Cc1ncc(-c2cc(C(=O)Nc3ccc(OC(F)(F)F)cc3)cnc2N2CC[C@@H](O)C2)s1 [Example 11, (R)-6-(3-Hydroxypyrrolidin-1-yl)-5-(2-methylthiazol-5-yl)-N-(4-(trifluoromethoxy)phenyl)nicotinamide]		< 3
O=C(Nc1ccc(OC(F)(F)F)cc1)c1cnc(N2CC[C@@H](O)C2)c(-c2nccs2)c1 [Example 9, (R)-6-(3-Hydroxypyrrolidin-1-yl)-5-(thiazol-2-yl)-N-(4-(trifluoromethoxy)phenyl)nicotinamide]		10
